# According to patent publication US7001619B2, “Hepatocurative effect of emblica officinalis against CYP 450 bio-activation hepatotoxicity of drugs” (Council of Scientific and Industrial Research, priority 2002, dated 2006):
# Legend:
# [1] = tested on: hepatotoxicity produced by galactosamine; assay: Hepatotoxicity produced by galactosamine (not dependent on CYP 450 bioactivation), LDH and GPT leakage; format: in vivo; conditions: galactosamine alone
# [2] = tested on: hepatotoxicity produced by paracetamol; assay: Hepatotoxicity produced by paracetamol (CYP 450 bioactivation), LDH and GPT release in serum; format: in vivo; conditions: paracetamol alone
# CYP 450 1A1 = molecular target: T1, CYP 450 1A1 (Homo sapiens, UniProt P04798); conditions: cited from earlier work
# T1 sequence (P04798 1-512): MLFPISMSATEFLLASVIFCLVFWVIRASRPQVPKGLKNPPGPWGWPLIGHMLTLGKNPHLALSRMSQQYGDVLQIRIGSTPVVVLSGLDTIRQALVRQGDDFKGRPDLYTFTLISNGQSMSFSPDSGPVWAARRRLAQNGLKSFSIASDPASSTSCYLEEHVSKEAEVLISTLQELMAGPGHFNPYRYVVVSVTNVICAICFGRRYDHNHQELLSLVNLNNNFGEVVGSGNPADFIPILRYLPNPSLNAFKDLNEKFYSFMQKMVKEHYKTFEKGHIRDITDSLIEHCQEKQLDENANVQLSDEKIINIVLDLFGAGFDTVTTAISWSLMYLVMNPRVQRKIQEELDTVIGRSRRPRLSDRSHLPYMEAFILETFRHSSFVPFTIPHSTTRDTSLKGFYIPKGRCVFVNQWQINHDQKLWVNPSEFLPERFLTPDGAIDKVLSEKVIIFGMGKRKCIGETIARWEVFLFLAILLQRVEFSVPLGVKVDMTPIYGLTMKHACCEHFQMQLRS
smiles,measurement,setting,value
N[C@H]1C(O)O[C@H](CO)[C@H](O)[C@@H]1O (stereo partly drawn) [galactosamine],Toxicity,[1],93%
CC(=O)Nc1ccc(O)cc1 [paracetamol],Toxicity,[2],93%
O=C(/C=C/C=C/c1ccc2c(c1)OCO2)N1CCCCC1 [piperine],inhibition of CYP 450 1A1 (in words),CYP 450 1A1,specific inhibitor of CYP 450 1A1
